According to BindingDB's records for patent US20240116947 (Chiesi Farmaceutici, 2024):

Target: T1, TGF-beta receptor type-1 (Homo sapiens, UniProt P36897)
T1 sequence (P36897 whole entry): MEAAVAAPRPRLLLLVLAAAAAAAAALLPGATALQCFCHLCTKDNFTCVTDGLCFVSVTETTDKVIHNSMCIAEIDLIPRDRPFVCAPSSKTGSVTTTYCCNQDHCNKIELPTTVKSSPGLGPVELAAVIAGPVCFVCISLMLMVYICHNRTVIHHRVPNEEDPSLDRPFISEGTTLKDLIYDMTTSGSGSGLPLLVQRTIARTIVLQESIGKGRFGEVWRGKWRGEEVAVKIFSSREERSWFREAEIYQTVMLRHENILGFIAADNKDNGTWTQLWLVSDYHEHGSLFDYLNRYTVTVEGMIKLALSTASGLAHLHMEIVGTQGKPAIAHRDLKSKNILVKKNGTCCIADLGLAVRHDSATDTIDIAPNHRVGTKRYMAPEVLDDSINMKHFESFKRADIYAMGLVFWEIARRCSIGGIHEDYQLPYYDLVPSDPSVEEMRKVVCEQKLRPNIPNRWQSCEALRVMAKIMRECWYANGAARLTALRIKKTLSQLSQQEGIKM
Test: Enzymatic Activity Assay
Procedure: The enzymatic activity of compounds of the present invention was monitored measuring the formation of ADP using the ADP-GLO Kinases assay. Following the incubation of the purified enzyme, a substrate and ATP, the produced ADP was converted into ATP, which in turn was converted into light by Ultra-Glo Luciferase. The luminescent signal positively correlated with ADP amount and kinase activity. […] All reactions/incubations were performed at 25° C. Compound and ALK5 kinase were mixed and incubated for 15 mins. […] After an incubation of 150 min, the reaction was stopped, and ADP production detected with ADP-Glo kit according to manufacturer's indications. The assay was performed in 384-well format and was validated using a selection of reference compounds that was tested in 11 point concentration-response curve.

IC50: < 1 nM
Compound: O=C(CCN(C1COC1)C1COC1)Nc1cc(N2CCOc3cnc(-c4cc(Cl)ccc4F)cc32)ccn1 [US20240116947, Example 21]
